Test system: Dox-dependent porcine iPSCs
Assay: Dox removal from Dox-dependent porcine iPSCs
Assay type: cell-based
Conditions: upon Dox removal
Description: Germany Landrace and China TAIHU OCT4-TD-tomato [2] Porcine fetal fibroblasts (PFFs) were plated on gelatinized 15-cm tissue culture plates and cultured in M20 media. They were trypsinized with 0.25% trypsin/EDTA solution (Gibco, Cat. No. 25500-054) and harvested for electroporation at 80% confluence. M20: knockout DMEM (Gibco, Cat. No. 10829-018), 20% FBS (Gibco, Cat. No. 10270), 1× Glutamine Penicillin-Streptomycin (Thermo Fisher Scientific, Cat. No. 11140-050) and 1×NEAA (Thermo Fisher Scientific, Cat. No. 10378-016). The transfections were performed using an Amaxa Nucleofector machine (Lonza) according to the manufacturer's protocol (NHDF Nucleofector® Kit, Cat. No. VPD-1001, program U-20). piggyBac transposition was used to achieve stable integration of reprogramming factors. The expression of the reprogramming factors was under the transcriptional control of the tetO2 tetracycline/doxycycline inducible promoter. 1.5 million PFFs and 6.0 μg DNA (2.0 μg PB-TRE-pOSCK, Porcine OCT4, SOX2, cMYC and KLF4; 1.0 μg PB-TRE-pNhL, 1.0 μg PB-TRE-hRL: human RARG and TRH1, 1.0 μg PB-EF1a-transposase and 1.0 μg PB-EF1a-rTTA) were used in each electroporation reaction. PB-TRE-pOSCK: cDNAs of porcine OCT4, SOX2, cMYC and KLF4 linked by 2A sequence were expressed as a single transcript from the tetO2 promoter. […]

For C[C@H]1c2cccc(O)c2C(=O)C2=C(O)[C@]3(O)C(=O)C(C(N)=O)=C(O)[C@@H](N(C)C)[C@@H]3[C@@H](O)[C@@H]21 [Dox, Doxycycline], the “time to differentiation of iPSCs” value was 4 to 5 days.

— patent publication US20220145264A1, “CULTURE MEDIUM FOR MAMMALIAN EXPANDED POTENTIAL STEM CELLS, COMPOSITION, AND METHODS THEREOF” (THE UNIVERSITY OF HONG KONG, priority 2019, published 2022)
